Experimental data published in paper PMC8734228 (Cancer discovery, 2021).
Where two headings read alike, the source gives them in different places.

Tests used:
PKA = conditions: read-out: Ki PKA; cited from earlier work
FLC3 PDX cells = test: Validation screen, 11-point dose response, 72 h, Cell Titer Glo; assay type: cell-based, human; conditions: read-out: EC50 FLC
FLC PDX cells = test: Validation screen on cells dissociated from FLC PDX; assay type: cell-based, human
ERK2 = conditions: read-out: Ki against other kinases: ERK2; cited from earlier work
PKCδ = conditions: read-out: Ki against other kinases: PKCδ; cited from earlier work
RSK2 = conditions: read-out: Ki against other kinases: RSK2; cited from earlier work
FLC4 PDX cells = test: Validation screen, 11-point dose response, 72 h, Cell Titer Glo; assay type: cell-based, human; conditions: read-out: EC50 FLC
FLC1 PDX cells = test: as above; assay type: cell-based, human; conditions: read-out: EC50 FLC
FLC2 PDX cells = test: as above; assay type: cell-based, human; conditions: read-out: EC50 FLC
GSK-3β = conditions: read-out: Ki against other kinases: GSK-3β; cited from earlier work
[1] = system: cells dissociated directly from patient tumors (FLC.T6-T11); test: Direct from patient in vitro screening; assay type: cell-based, human; conditions: for Drug sensitivity of FLC.T6 compared with derived PDX FLC6 (EC50): cells direct from patient tumor vs cells from its PDX; for Sensitivity of cells tested directly from patients: 10μM-10nM, 72h, Cell Titer Glo
Rock1 = conditions: read-out: Ki against other kinases: Rock1; cited from earlier work
FLC5 PDX cells = test: Validation screen, 11-point dose response, 72 h, Cell Titer Glo; assay type: cell-based, human; conditions: read-out: EC50 FLC
FLC5 cells = test: Anchor screen, synergy assay; assay type: cell-based, human; conditions: FLC5, ZIP, Bliss and HSA scores
Rock2 = conditions: read-out: Ki against other kinases: Rock2; cited from earlier work
[2] = system: primary human hepatocytes (PHH); test: Validation counter-screen on primary human hepatocytes; conditions: 72 h, read-out: EC50 PHH
Akt1 = conditions: read-out: Ki against other kinases: Akt1; cited from earlier work
Akt2 = conditions: read-out: Ki against other kinases: Akt2; cited from earlier work
Akt3 = conditions: read-out: Ki against other kinases: Akt3; cited from earlier work
p70s6k = conditions: read-out: Ki against other kinases: p70s6k; cited from earlier work
PKG = conditions: read-out: Ki against other kinases: PKG; printed as PKG/PKC; cited from earlier work
PKC = conditions: read-out: Ki against other kinases: PKC; printed as PKG/PKC; cited from earlier work
PI3K (p110α)/DNA-PK = conditions: read-out: IC50 PI3K (p110α)/DNA-PK; cited from earlier work
FLC1 cells = test: Role of ROS: survival with or without N-acetyl cysteine 10mM; assay type: cell-based, human; conditions: NAC 10mM, 72 h
FLC5 PDX = test: In vivo drug testing in mice bearing PDX FLC5; conditions: panobinostat 2.5mg/kg combined with navitoclax 50 mg/kg
FLC PDX = test: In vivo drug testing of HDAC inhibitors in mice bearing PDX
FLC1 PDX = test: In vivo drug testing in mice bearing PDX FLC1; conditions: 2 days, FLC1

## Cc1[nH]nc2ccc(-c3cncc(OC[C@@H](N)Cc4ccccc4)c3)cc12 [A-674563]
PKA
  Ki: 16 nM
FLC3 PDX cells; FLC3, 72 h
  EC50: 880 nM
FLC PDX cells; FLC PDX cells compared with PHH
  Therapeutic window for FLC over PHH: no therapeutic window
ERK2
  Ki: 260 nM
PKCδ
  Ki: 360 nM
RSK2
  Ki: 580 nM
FLC4 PDX cells; FLC4, 72 h
  EC50: 160 nM
FLC1 PDX cells; FLC1, 72 h
  EC50: 340 nM
FLC2 PDX cells; FLC2, 72 h
  EC50: 700 nM
GSK-3β
  Ki: 110 nM

## NC[C@@](O)(c1ccc(Cl)cc1)c1ccc(-c2cn[nH]c2)cc1 [AT13148]
PKA
  Ki: 3 nM
FLC3 PDX cells; Homo sapiens, 72 h
  EC50: 590 nM
[1]
  Drug sensitivity of FLC.T6 compared with derived PDX FLC6 (EC50): outliers
Rock1
  Ki: 6 nM
FLC5 PDX cells; Homo sapiens, 72 h
  EC50: 96 nM
FLC5 cells
  Synergy with A1331852: some synergy
Rock2
  Ki: 4 nM
[2]; Homo sapiens, Hepatocyte
  EC50: 4050 nM
Akt1
  Ki: 38 nM
Akt2
  Ki: 402 nM
Akt3
  Ki: 50 nM
p70s6k
  Ki: 8 nM
FLC4 PDX cells; Homo sapiens, 72 h
  EC50: 4290 nM
FLC1 PDX cells; Homo sapiens, 72 h
  EC50: 39 nM
FLC2 PDX cells; Homo sapiens, 72 h
  EC50: 6140 nM

## CCCCCCOC(=O)[C@]1(O)C[C@@H]2O[C@@]1(C)n1c3ccccc3c3c4c(c5c6ccccc6n2c5c31)C(=O)NC4 [KT5720]
PKA
  Ki: 60 nM
FLC3 PDX cells; FLC3, 72 h
  EC50: 2710 nM
PKG
  Ki: > 2000 nM
FLC5 PDX cells; FLC5, 72 h
  EC50: 3870 nM
[2]
  EC50: > 10000 nM
FLC4 PDX cells; FLC4, 72 h
  EC50: 1480 nM
FLC1 PDX cells; FLC1, 72 h
  EC50: 1610 nM
FLC2 PDX cells; FLC2, 72 h
  EC50: 2140 nM
PKC
  Ki: > 2000 nM

## Cc1ccc([N+](=O)[O-])cc1S(=O)(=O)N(C)/N=C/c1cnc2ccc(Br)cn12 [PIK-75]
[1]
  Sensitivity of cells tested directly from patients: sensitive
PI3K (p110α)/DNA-PK
  IC50: 5.8 nM
FLC PDX cells; 10nM-10μM, 72 h, FLC1-6
  Effect on FLC PDX cells in vitro (dose response, normalized percent survival): potent against FLC1,4 relative to PHH

## Cc1[nH]c2ccccc2c1CCNCc1ccc(/C=C/C(=O)NO)cc1 [panobinostat]
[1]
  Sensitivity of cells tested directly from patients: sensitive
  Drug sensitivity of FLC.T6 compared with derived PDX FLC6 (EC50): correlated well
FLC1 cells
  Effect of N-acetyl cysteine (NAC) on the toxicity of the drug: mildly attenuated
FLC5 PDX
  Tumor response with combined treatment: partial response
FLC PDX cells; ranked by average −log10EC50 for FLC1-5 minus −log10EC50 for PHH
  Efficacy ranking in the screen: 103
FLC PDX; 10mg/kg IP
  Tumor growth at 7 days: −7%
  Tumor growth at 14 days: 4%
FLC PDX; 10mg/kg IP, 14 days
  Average weight loss: 11%
  Tumor volume:mouse weight: stable or decreased
FLC PDX; 10mg/kg, after 14 days
  Apoptosis as assayed by TUNEL: no increase in apoptosis
  Mitotic figures, Ki67 and pHH3 positive cells in tumors: dramatic decrease
FLC1 PDX; panobinostat 10mg/kg alone
  Apoptosis (TUNEL), panobinostat alone compared to vehicle: no evidence of increased apoptosis
FLC1 PDX; panobinostat 10mg/kg combined with A1331852 25mg/kg
  Apoptotic cells (TUNEL) with combined treatment: many apoptotic cells
